In patent US20170275287A1, “NOVEL N2, N4, N7, 6-TETRASUBSTITUTED PTERIDINE-2,4,7-TRIAMINE AND 2, 4, 6, 7-TETRASUBSTITUTED PTERIDINE COMPOUNDS AND METHODS OF SYNTHESIS AND USE THEREOF” (Janus Biotherapeutics, Inc., priority 2014, published 2017):
Read-outs that look alike come from different tables or passages of the source.

Key:
[1] = molecular target: T1, TLR9 (Mus musculus, UniProt Q9EQU3); test: In vivo TLR9 knockdown (CpG-DNA challenge, serum cytokines); parameters: species or system mice
T1 construct: endogenous in cells
T1 sequence (Q9EQU3 26-1032): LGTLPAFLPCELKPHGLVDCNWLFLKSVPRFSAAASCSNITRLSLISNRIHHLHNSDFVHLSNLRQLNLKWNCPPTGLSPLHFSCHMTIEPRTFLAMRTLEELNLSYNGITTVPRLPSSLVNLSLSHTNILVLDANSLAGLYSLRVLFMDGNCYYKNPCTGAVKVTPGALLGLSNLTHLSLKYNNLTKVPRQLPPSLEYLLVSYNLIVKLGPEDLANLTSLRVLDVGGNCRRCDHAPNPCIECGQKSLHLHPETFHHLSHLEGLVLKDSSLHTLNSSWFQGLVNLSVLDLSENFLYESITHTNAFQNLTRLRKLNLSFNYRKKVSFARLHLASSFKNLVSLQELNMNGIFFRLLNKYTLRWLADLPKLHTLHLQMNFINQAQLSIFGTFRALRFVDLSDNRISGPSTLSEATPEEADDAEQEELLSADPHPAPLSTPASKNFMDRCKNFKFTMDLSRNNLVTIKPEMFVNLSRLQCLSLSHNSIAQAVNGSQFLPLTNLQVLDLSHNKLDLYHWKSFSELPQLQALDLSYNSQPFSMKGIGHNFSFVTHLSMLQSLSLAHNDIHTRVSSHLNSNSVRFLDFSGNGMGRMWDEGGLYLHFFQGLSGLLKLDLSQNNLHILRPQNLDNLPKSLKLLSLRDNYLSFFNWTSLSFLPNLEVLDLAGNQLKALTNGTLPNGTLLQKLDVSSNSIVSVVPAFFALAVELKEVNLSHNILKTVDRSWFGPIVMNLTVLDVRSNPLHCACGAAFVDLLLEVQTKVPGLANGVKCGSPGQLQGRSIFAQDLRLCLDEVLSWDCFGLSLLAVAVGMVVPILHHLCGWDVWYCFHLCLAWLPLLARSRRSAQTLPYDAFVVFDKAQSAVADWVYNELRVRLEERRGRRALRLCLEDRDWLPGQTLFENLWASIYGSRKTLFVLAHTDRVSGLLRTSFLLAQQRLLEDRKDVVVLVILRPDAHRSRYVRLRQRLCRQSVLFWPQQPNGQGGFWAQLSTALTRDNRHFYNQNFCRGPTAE
Method: Mice were treated with test antagonist at varying doses at T=0 hr. Agonist treatment (CpG-DNA) dosed one hour later, T=1 hr for IP groups and two hours later, T=2 hr for PO groups. Necropsy performed 3 hours post agonist treatment, T=4 hr (IP groups) or T=5 hr (PO groups). Serum cytokines induced by the TLR agonist are measured by ELISA. Groups size per dose, n=3. The mean+/−SD of two independent ELISA's at differing serum dilutions is plotted.

[2] = system: five bacterial strains; test: Non-GLP AMES test (BioRelience); settings: five bacterial strains plus or minus S9 fraction to 5000 μg
Method: A non-GLP AMES test study was performed by BioRelience Inc, MD according to Maron, D. M. and Ames, B. N., 1983, Mutation Res., 113:173-215. The test was performed in five bacterial strains plus or minus S9 fraction to 5000 μg.

[3] = PK/PD study: whole blood JB6121 after 7 days oral dosing; type: in vivo, Sprague-Dawley rats; settings: for AUC(0-t)/D / Cmax/D / AUC(0-t) / Cmax / Tmax / AUC / half-life: Day 7; for AUC(0-t) / Cmax / Tmax / concentration at 2 h / concentration at 3 h / concentration at 4 h / concentration at 5 h / AUC / half-life: Sprague-Dawley, rat, whole blood; for concentration at 2 h: Day 7, 2 h; for concentration at 3 h: Day 7, 3 h; for concentration at 4 h: Day 7, 4 h; for concentration at 5 h: Day 7, 5 h; for AUC: read-out: AUC Extrap; for half-life: read-out: t½ (converted)
Method: The objective of this study was to collect serum following ODN CpG 1668 administration and to determine the pharmacokinetics of JB6121 following oral administration to Sprague-Dawley rats for 7 days. There was a pre-test to establish the appropriate agonist dose for a TLR9 ligand, CpG DNA ODN 1668, in rats using serum IL-12 as the monitored cytokine, groups 1-3, see table 6. Whole blood samples for serum were collected terminally from each animal 3 hours following dosing with ODN CpG 1668. Serum IL-12 was determined by ELISA, data not shown. An agonist dose of lmg/kg was selected for the next phase of the study. For groups administered JB6121 (Groups 4-7), formulations were corrected for base/salt components and not corrected for purity. On the initial day of dose administration, JB6121 formulations were prepared using sterile PBS to the adjusted target dosing concentrations using a factor of 0.8265 to correct for salt content. Dosing was performed as outlined in the following Table 9.
Animals were assigned to four groups (groups 4-7) and administered JB6121 at 0.39, 1.56, 6.25, or 25 mg/kg in a volume of […] once per day by oral gavage for 7 days. On Day 7, two hours following the JB6121 dose (approximate Cmax), ODN CpG 1668 was administered as a single IP dose at 1 mg/kg in a volume of 1 mL/kg. Whole blood samples for bioanalysis and serum samples for serum cytokine analysis were collected by tail vein bleeding or terminally by cardiac puncture at t=2, 3, 4 and 5 h.

CN1CCN(c2nc(NCCN3CCOCC3)c3nc(Cl)c(NCCN4CCOCC4)nc3n2)CC1 [JB6121, 6-chloro-2-(4-methylpiperazin-1-yl)-N^4,N^7-bis(2-morpholinoethyl)pteridine-4,7-diamine]
ID50, TLR9 knockdown, IP injection ([1]; mice, IP, CpG-DNA 1 h later): 55.27 μg injection dose | ID50, TLR9 knockdown, PO gavage ([1]; mice, PO, CpG-DNA 2 h later): 59.99 μg delivery dose | ED50 ([1]; mouse, translated for a 25 gram mouse, read-out: ID50, TLR9 knockdown): ~2.4 mg/kg | AMES test [2]: no toxicity | AUC(0-t)/D ([3]; 0.39 mg/kg PO daily x7 days): 24.8 ng · h/mL/mg/kg/day | Cmax/D ([3]; 0.39 mg/kg PO daily x7 days): 13.4 ng/mL/mg/kg/day | AUC(0-t)/D ([3]; 1.56 mg/kg PO daily x7 days): 13.6 ng · h/mL/mg/kg/day | Cmax/D ([3]; 1.56 mg/kg PO daily x7 days): 6.96 ng/mL/mg/kg/day | AUC(0-t)/D ([3]; 6.25 mg/kg PO daily x7 days): 34.8 ng · h/mL/mg/kg/day | Cmax/D ([3]; 6.25 mg/kg PO daily x7 days): 15.2 ng/mL/mg/kg/day | AUC(0-t)/D ([3]; 25 mg/kg PO daily x7 days): 63 ng · h/mL/mg/kg/day | Cmax/D ([3]; 25 mg/kg PO daily x7 days): 28.4 ng/mL/mg/kg/day | AUC(0-t) ([3]; 0.39 mg/kg PO daily x7 days): 9.68 ng·h/mL | Cmax ([3]; 0.39 mg/kg PO daily x7 days): 5.24 ng/mL | Tmax ([3]; 0.39 mg/kg PO daily x7 days): 3.8 h | concentration at 2 h ([3]; 0.39 mg/kg PO daily x7 days): 2.5 ng/mL | concentration at 3 h ([3]; 0.39 mg/kg PO daily x7 days): 3.88 ng/mL | concentration at 4 h ([3]; 0.39 mg/kg PO daily x7 days): 5.57 ng/mL | concentration at 5 h ([3]; 0.39 mg/kg PO daily x7 days): 6.47 ng/mL | AUC ([3]; 0.39 mg/kg PO daily x7 days): 133 ng·h/mL | half-life ([3]; 0.39 mg/kg PO daily x7 days): 8.75 h | AUC(0-t) ([3]; 1.56 mg/kg PO daily x7 days): 21.3 ng·h/mL | Cmax ([3]; 1.56 mg/kg PO daily x7 days): 10.9 ng/mL | Tmax ([3]; 1.56 mg/kg PO daily x7 days): 4 h | concentration at 2 h ([3]; 1.56 mg/kg PO daily x7 days): 3.93 ng/mL | concentration at 3 h ([3]; 1.56 mg/kg PO daily x7 days): 8.2 ng/mL | concentration at 4 h ([3]; 1.56 mg/kg PO daily x7 days): 7.8 ng/mL | concentration at 5 h ([3]; 1.56 mg/kg PO daily x7 days): 7.76 ng/mL | AUC ([3]; 1.56 mg/kg PO daily x7 days): 231 ng·h/mL | half-life ([3]; 1.56 mg/kg PO daily x7 days): 21.2 h | AUC(0-t) ([3]; 6.25 mg/kg PO daily x7 days): 217 ng·h/mL | Cmax ([3]; 6.25 mg/kg PO daily x7 days): 95 ng/mL | Tmax ([3]; 6.25 mg/kg PO daily x7 days): 3.2 h | concentration at 2 h ([3]; 6.25 mg/kg PO daily x7 days): 27 ng/mL | concentration at 3 h ([3]; 6.25 mg/kg PO daily x7 days): 94.8 ng/mL | concentration at 4 h ([3]; 6.25 mg/kg PO daily x7 days): 77.8 ng/mL | concentration at 5 h ([3]; 6.25 mg/kg PO daily x7 days): 63.8 ng/mL | AUC ([3]; 6.25 mg/kg PO daily x7 days): 609 ng·h/mL | half-life ([3]; 6.25 mg/kg PO daily x7 days): 4.09 h | AUC(0-t) ([3]; 25 mg/kg PO daily x7 days): 1570 ng·h/mL | Cmax ([3]; 25 mg/kg PO daily x7 days): 711 ng/mL | Tmax ([3]; 25 mg/kg PO daily x7 days): 3 h | concentration at 2 h ([3]; 25 mg/kg PO daily x7 days): 401 ng/mL | concentration at 3 h ([3]; 25 mg/kg PO daily x7 days): 711 ng/mL | concentration at 4 h ([3]; 25 mg/kg PO daily x7 days): 487 ng/mL | concentration at 5 h ([3]; 25 mg/kg PO daily x7 days): 366 ng/mL | AUC ([3]; 25 mg/kg PO daily x7 days): 2770 ng·h/mL | half-life ([3]; 25 mg/kg PO daily x7 days): 2.2 h
